Read-outs that look alike come from different tables or passages of the source.
Molecular target: BRAF V600E (Homo sapiens, UniProt P15056, V600E)
Assay: HiBiT cellular BRAF^V600E degradation assay
Assay type: cell-based
Conditions: for DC50: concentration at which 50% of total cellular BRAF^V600E is degraded; for Emax: read-out: HiBit 24 h Emax
[1] = A375.10 cells, 24 h, residual protein remaining in the cell

Chain of BRAF V600E (P15056 whole entry V600E): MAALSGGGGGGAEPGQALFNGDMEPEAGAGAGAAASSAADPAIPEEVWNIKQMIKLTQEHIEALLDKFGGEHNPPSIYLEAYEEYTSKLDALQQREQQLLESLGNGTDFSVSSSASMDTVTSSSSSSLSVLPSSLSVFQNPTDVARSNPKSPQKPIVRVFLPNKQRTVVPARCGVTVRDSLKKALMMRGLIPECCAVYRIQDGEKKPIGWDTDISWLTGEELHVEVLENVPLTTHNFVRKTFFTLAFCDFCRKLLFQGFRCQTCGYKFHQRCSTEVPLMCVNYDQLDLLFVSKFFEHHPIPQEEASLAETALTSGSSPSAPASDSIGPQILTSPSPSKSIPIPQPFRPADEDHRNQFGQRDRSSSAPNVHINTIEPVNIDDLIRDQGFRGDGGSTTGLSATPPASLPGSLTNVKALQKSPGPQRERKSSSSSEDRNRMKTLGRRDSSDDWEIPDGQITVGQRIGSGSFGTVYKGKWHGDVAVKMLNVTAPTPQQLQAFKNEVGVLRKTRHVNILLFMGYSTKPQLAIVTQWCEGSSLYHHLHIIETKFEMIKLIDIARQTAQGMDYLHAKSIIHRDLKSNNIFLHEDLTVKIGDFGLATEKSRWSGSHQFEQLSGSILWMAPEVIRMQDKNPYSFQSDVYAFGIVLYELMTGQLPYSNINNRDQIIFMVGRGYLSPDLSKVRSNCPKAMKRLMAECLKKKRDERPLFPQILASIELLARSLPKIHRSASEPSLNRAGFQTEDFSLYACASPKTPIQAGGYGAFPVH

Row | Structure (SMILES) | DC50 (A375.10 cells, 24 h) | Emax [1] | Emax
1 | CCN(C)S(=O)(=O)Nc1ccc(F)c(Oc2ccc3ncc([C@H]4COC5(CCN(C(=O)CC6(O)CCN(c7cc8c(cc7F)c(N7CCC(=O)NC7=O)nn8C)CC6)CC5)C4)c(OC)c3c2)c1C#N (single isomer, unassigned) [Example 225] | > 5000 nM | 65.3% | –
2 | CCN(C)S(=O)(=O)Nc1ccc(F)c(Oc2ccc3ncn([C@H]4COC5(CCN(C(=O)CN6CCC(c7ccc(NC8CCC(=O)NC8=O)c(F)c7)CC6)CC5)C4)c(=O)c3c2)c1C#N (stereo partly drawn) [Example 54, (3R)-3-[6-[2-cyano-3-[[ethyl(methyl)sulfamoyl]amino]-6-fluorophenoxy]-4-oxoquinazolin-3-yl]-8-[2-[4-[4-[(2,6-dioxopiperidin-3-yl)amino]-3-fluorophenyl]piperidin-1-yl]acetyl]-1-oxa-8-azaspiro[4.5]decane] | 15.4 nM | – | 12.1%
3 | CCN(C)S(=O)(=O)Nc1ccc(F)c(Oc2ccc3ncn([C@H]4CCC5(CCN(C(=O)CN6CCN(c7ccc(C8CCC(=O)NC8=O)cc7F)CC6)CC5)C4)c(=O)c3c2)c1C#N (stereo partly drawn) [Example 55, 6-[2-cyano-3-[[ethyl(methyl)sulfamoyl]amino]-6-fluorophenoxy]-3-[(3S)-8-[2-[4-[4-(2,6-dioxopiperidin-3-yl)-2-fluorophenyl]piperazin-1-yl]acetyl]-8-azaspiro[4.5]decan-3-yl]-4-oxoquinazoline] | 30 nM | 14.7% | –
4 | CCN(C)S(=O)(=O)Nc1ccc(F)c(Oc2ccc3ncn(C4COC5(CCN(C(=O)CN6CCC(c7ccc(NC8CCC(=O)NC8=O)cc7F)CC6)CC5)C4)c(=O)c3c2Br)c1C#N (stereo not drawn) [Example 68, 3-[5-bromo-6-[2-cyano-3-[[ethyl(methyl)sulfamoyl]amino]-6-fluorophenoxy]-4-oxoquinazolin-3-yl]-8-[2-[4-[4-[(2,6-dioxopiperidin-3-yl)amino]-2-fluorophenyl]piperidin-1-yl]acetyl]-1-oxa-8-azaspiro[4.5]decane] | 8.77 nM | 8.05% | –
5 | N#Cc1c(NS(=O)(=O)N2CCC2)ccc(F)c1Oc1ccc2ncn(-c3cnc(N4CCN(C(=O)CN5CCC(c6ccc(N[C@H]7CCC(=O)NC7=O)cc6F)CC5)CC4)nc3)c(=O)c2c1 [Example 130, N-[2-cyano-3-[3-[2-[4-[2-[4-[4-[[(3S)-2,6-dioxopiperidin-3-yl]amino]-2-fluorophenyl]piperidin-1-yl]acetyl]piperazin-1-yl]pyrimidin-5-yl]-4-oxoquinazolin-6-yl]oxy-4-fluorophenyl]azetidine-1-sulfonamide] | 16.5 nM | 7.25% | –
6 | CCN(C)S(=O)(=O)Nc1ccc(F)c(Oc2ccc3ncn(C4CCC5(CCN(C(=O)CN6CCC(c7ccc(NC8CCC(=O)NC8=O)cc7F)CC6)CC5)C4)c(=O)c3c2F)c1C#N (stereo not drawn) [Example 52, 6-[2-cyano-3-[[ethyl(methyl)sulfamoyl]amino]-6-fluorophenoxy]-3-[8-[2-[4-[4-[(2,6-dioxopiperidin-3-yl)amino]-2-fluorophenyl]piperidin-1-yl]acetyl]-8-azaspiro[4.5]decan-3-yl]-5-fluoro-4-oxoquinazoline] | 20.7 nM | 11.4% | –
7 | CC(C)S(=O)(=O)Nc1ccc(F)c(Oc2ccc3ncn([C@H]4COC5(CCN(C(=O)CN6CCC(c7ccc8c(C9CCC(=O)NC9=O)nn(C)c8c7)CC6)CC5)C4)c(=O)c3c2)c1C#N (stereo partly drawn) [Example 168, N-[2-cyano-3-[3-[(3R)-8-[2-[4-[3-(2,6-dioxopiperidin-3-yl)-1-methylindazol-6-yl]piperidin-1-yl]acetyl]-1-oxa-8-azaspiro[4.5]decan-3-yl]-4-oxoquinazolin-6-yl]oxy-4-fluorophenyl]propane-2-sulfonamide] | 36.5 nM | 14.1% | –
8 | CO[C@@H]1CCN(S(=O)(=O)Nc2ccc(F)c(Oc3ccc4ncn([C@H]5COC6(CCN(C(=O)CC7(O)CCN(c8cc9c(cc8F)c(N8CCC(=O)NC8=O)nn9C)CC7)CC6)C5)c(=O)c4c3)c2C#N)C1 [Example 177, (3R)—N-[2-cyano-3-[3-[(3R)-8-[2-[1-[3-(2,4-dioxo-1,3-diazinan-1-yl)-5-fluoro-1-methylindazol-6-yl]-4-hydroxypiperidin-4-yl]acetyl]-1-oxa-8-azaspiro[4.5]decan-3-yl]-4-oxoquinazolin-6-yl]oxy-4-fluorophenyl]-3-methoxypyrrolidine-1-sulfonamide] | 18 nM | 22.3% | –
9 | N#Cc1c(NS(=O)(=O)N2CC[C@@H](F)C2)ccc(F)c1Oc1ccc2ncn(-c3cnc(N4CCN(C(=O)CN5CCC(c6ccc(N[C@@H]7CCC(=O)NC7=O)cc6F)CC5)CC4)nc3)c(=O)c2c1 [Example 124, (3R)—N-[2-cyano-3-[3-[2-[4-[2-[4-[4-[[(3R)-2,6-dioxopiperidin-3-yl]amino]-2-fluorophenyl]piperidin-1-yl]acetyl]piperazin-1-yl]pyrimidin-5-yl]-4-oxoquinazolin-6-yl]oxy-4-fluorophenyl]-3-fluoropyrrolidine-1-sulfonamide] | 15.7 nM | 12% | –
10 | CCN(C)S(=O)(=O)Nc1ccc(F)c(Oc2ccc3ncn([C@H]4COC5(CCN(C(=O)CC6(O)CCN(c7cc8c(cc7F)c(N7CCC(=O)NC7=O)nn8C)CC6)CC5)C4)c(=O)c3c2OC)c1C#N (single isomer, unassigned) [Example 181] | 19.9 nM | 19.1% | –

Continued, in another order:

Row | DC50 (A375.10 cells, 24 h) | Emax [1] | Structure (SMILES) | Emax
11 | 29.6 nM | 10.3% | N#Cc1c(NS(=O)(=O)N2C[C@@H](F)[C@H](F)C2)ccc(F)c1Oc1ccc2ncn(-c3cnc(N4CCN(C(=O)CN5CCC(c6ccc(N[C@H]7CCC(=O)NC7=O)cc6F)CC5)CC4)nc3)c(=O)c2c1 [Example 129, (3R,4R)—N-[2-cyano-3-[3-[2-[4-[2-[4-[4-[[(3S)-2,6-dioxopiperidin-3-yl]amino]-2-fluorophenyl]piperidin-1-yl]acetyl]piperazin-1-yl]pyrimidin-5-yl]-4-oxoquinazolin-6-yl]oxy-4-fluorophenyl]-3,4-difluoropyrrolidine-1-sulfonamide] | –
12 | 27.1 nM | 26.8% | Cn1nc(N2CCC(=O)NC2=O)c2cc(F)c(N3CCC(O)(CC(=O)N4CCC5(CC4)C[C@@H](n4cnc6ccc(Oc7c(F)ccc(NS(=O)(=O)C8CCCC8)c7C#N)cc6c4=O)CO5)CC3)cc21 [Example 191, N-[2-cyano-3-[3-[(3R)-8-[2-[1-[3-(2,4-dioxo-1,3-diazinan-1-yl)-5-fluoro-1-methylindazol-6-yl]-4-hydroxypiperidin-4-yl]acetyl]-1-oxa-8-azaspiro[4.5]decan-3-yl]-4-oxoquinazolin-6-yl]oxy-4-fluorophenyl]cyclopentanesulfonamide] | –
13 | 25 nM | 30% | CCN(C)S(=O)(=O)Nc1ccc(F)c(Oc2ccc3ncn(C4CCC5(CC4)CCN(C(=O)CC4(O)CCN(c6cc7c(cc6F)c(N6CCC(=O)NC6=O)nn7C)CC4)CC5)c(=O)c3c2)c1C#N [Example 158, 9-[6-[2-cyano-3-[[ethyl(methyl)sulfamoyl]amino]-6-fluorophenoxy]-4-oxoquinazolin-3-yl]-3-[2-[1-[3-(2,4-dioxo-1,3-diazinan-1-yl)-5-fluoro-1-methylindazol-6-yl]-4-hydroxypiperidin-4-yl]acetyl]-3-azaspiro[5.5]undecane] | –
14 | 17.1 nM | 9.01% | N#Cc1c(NS(=O)(=O)N2CC[C@@H](F)C2)ccc(F)c1Oc1ccc2ncn(-c3cnc(N4CCN(C(=O)CN5CCC(c6ccc(N[C@H]7CCC(=O)NC7=O)cc6F)CC5)CC4)nc3)c(=O)c2c1 [Example 116, (3R)—N-[2-cyano-3-[3-[2-[4-[2-[4-[4-[[(3S)-2,6-dioxopiperidin-3-yl]amino]-2-fluorophenyl]piperidin-1-yl]acetyl]piperazin-1-yl]pyrimidin-5-yl]-4-oxoquinazolin-6-yl]oxy-4-fluorophenyl]-3-fluoropyrrolidine-1-sulfonamide] | –
15 | 45.3 nM | 13.9% | CCN(C)S(=O)(=O)Nc1ccc(F)c(Oc2ccc3ncn([C@H]4COC5(CCN(C(=O)CN6CCC(c7ccc(NC8CCC(=O)NC8=O)cc7F)C(F)(F)C6)CC5)C4)c(=O)c3c2)c1C#N (stereo partly drawn) [Example 58, (3R)-3-[6-[2-cyano-3-[[ethyl(methyl)sulfamoyl]amino]-6-fluorophenoxy]-4-oxoquinazolin-3-yl]-8-[2-[4-[4-[(2,6-dioxopiperidin-3-yl)amino]-2-fluorophenyl]-3,3-difluoropiperidin-1-yl]acetyl]-1-oxa-8-azaspiro[4.5]decane] | –
16 | 9990 nM | 89.4% | Cn1nc(N2CCC(=O)NC2=O)c2cc(F)c(N3CCC(O)(CC(=O)N4CCC5(CC4)C[C@@H](n4cnc6ccc(Oc7c(F)ccc(NS(=O)(=O)N8CCC8)c7C#N)cc6c4=O)CO5)CC3)cc21 [Example 196, N-[2-cyano-3-[3-[(3R)-8-[2-[1-[3-(2,4-dioxo-1,3-diazinan-1-yl)-5-fluoro-1-methylindazol-6-yl]-4-hydroxypiperidin-4-yl]acetyl]-1-oxa-8-azaspiro[4.5]decan-3-yl]-4-oxoquinazolin-6-yl]oxy-4-fluorophenyl]azetidine-1-sulfonamide] | –
17 | 42.5 nM | 27.2% | CCN(C)S(=O)(=O)Nc1ccc(F)c(Oc2ccc3ncn([C@H]4COC5(CCN(C(=O)CC6(F)CCN(c7cc8c(cc7F)c(N7CCC(=O)NC7=O)nn8C)CC6)CC5)C4)c(=O)c3c2)c1C#N [Example 201, (3R)-3-[6-[2-cyano-3-[[ethyl(methyl)sulfamoyl]amino]-6-fluorophenoxy]-4-oxoquinazolin-3-yl]-8-[2-[1-[3-(2,4-dioxo-1,3-diazinan-1-yl)-5-fluoro-1-methylindazol-6-yl]-4-fluoropiperidin-4-yl]acetyl]-1-oxa-8-azaspiro[4.5]decane] | –
18 | 13.8 nM | 11.1% | N#Cc1c(NS(=O)(=O)C2CCC2)ccc(F)c1Oc1ccc2ncn(-c3cnc(N4CCN(C(=O)CN5CCC(c6ccc(N[C@H]7CCC(=O)NC7=O)cc6F)CC5)CC4)nc3)c(=O)c2c1 [Example 132, N-[2-cyano-3-[3-[2-[4-[2-[4-[4-[[(3S)-2,6-dioxopiperidin-3-yl]amino]-2-fluorophenyl]piperidin-1-yl]acetyl]piperazin-1-yl]pyrimidin-5-yl]-4-oxoquinazolin-6-yl]oxy-4-fluorophenyl]cyclobutanesulfonamide] | –

From US12486253B2, “Therapeutics for the degradation of mutant BRAF” (C4 THERAPEUTICS, INC., priority 2021, dated 2025)
